Results reported in ChEMBL document CHEMBL4622901, “Vinyl sulfone-based inhibitors of trypanosomal cysteine protease rhodesain with improved antitrypanosomal activities” (Bioorg Med Chem Lett, 2020).

How the values were obtained:
Trypanosoma brucei = assay: Antitrypanosomal activity against Trypanosoma brucei; type: functional, organism-based
[1] = Cytotoxicity against human HepG2 cells assessed as reduction in cell viability; type: cell-based
[2] = Selectivity index, ratio of CC50 for human HepG2 cells to EC50 for Trypanosoma brucei; type: toxicity; settings: read-out: Ratio CC50/EC50
[3] = target: Rhodesain (Trypanosoma brucei rhodesiense) (UniProt Q95PM0); assay: Inhibition of Trypanosoma brucei rhodesain assessed as Kinact/Ki ratio
Sequence of Rhodesain (Trypanosoma brucei rhodesiense) (Q95PM0 1-450): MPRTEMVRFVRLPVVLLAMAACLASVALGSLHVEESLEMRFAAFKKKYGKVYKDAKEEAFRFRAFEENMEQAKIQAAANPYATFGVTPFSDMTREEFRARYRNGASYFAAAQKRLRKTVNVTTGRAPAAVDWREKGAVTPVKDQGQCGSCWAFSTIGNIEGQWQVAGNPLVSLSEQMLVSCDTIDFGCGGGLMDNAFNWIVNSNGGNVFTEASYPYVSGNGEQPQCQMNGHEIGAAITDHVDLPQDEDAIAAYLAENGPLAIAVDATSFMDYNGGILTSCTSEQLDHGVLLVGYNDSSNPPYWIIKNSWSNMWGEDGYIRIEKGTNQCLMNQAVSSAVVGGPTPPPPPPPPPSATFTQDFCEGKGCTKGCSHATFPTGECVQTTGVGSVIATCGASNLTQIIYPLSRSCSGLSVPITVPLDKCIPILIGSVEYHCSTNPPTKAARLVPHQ

[4] = target: Rhodesain (Trypanosoma brucei rhodesiense) (UniProt Q95PM0); assay: Inhibition of Trypanosoma brucei rhodesain at 10 uM measured after 1 hr relative to control

Compound	EC50 (Trypanosoma brucei) [µM]	kinact/Ki [3] [M⁻¹ s⁻¹]	inhibition [4] [%]	CC50 [1] [µM]	selectivity ratio [2]
CCC[C@@H](/C=C/S(=O)(=O)c1ccccc1)NC(=O)c1cccc2cccnc12	9.23	82.1	93.5	> 80	> 8.66
O=C(Cc1ccccn1)N[C@H](/C=C/S(=O)(=O)c1ccccc1)CCc1ccccc1	> 20	–	–	37.9	–
COc1cc([C@@H]2c3cc4c(cc3[C@H](O)[C@H]3COC(=O)[C@H]23)OCO4)cc(OC)c1OC [PODOFILOX]	–	–	–	< 0.5	–
CC(C)C[C@@H](/C=C/S(=O)(=O)c1ccccc1)NC(=O)c1cccc2cccnc12	7.98	–	–	15.1	1.89
Cn1cc([N+](=O)[O-])nc1C(=O)N[C@H](/C=C/S(=O)(=O)c1ccccc1)CCc1ccccc1	7.04	59	91.9	28.8	4.08
Cc1ncn(C)c1C(=O)N[C@H](/C=C/S(=O)(=O)c1ccccc1)CCc1ccccc1	19.6	–	–	34.4	1.76
O=C(N[C@H](/C=C/S(=O)(=O)c1ccccc1)Cc1ccccc1)c1cccc2cccnc12	11.7	–	–	25.3	2.16
O=C(N[C@H](/C=C/S(=O)(=O)c1ccccc1)CCc1ccccc1)[C@@H]1CSCN1	6.94	161	99.3	77.8	11.2
O=C(NC/C=C/S(=O)(=O)c1ccccc1)c1cccc2cccnc12	14.3	–	–	55.5	3.86

Second part, led by results:

EC50 (Trypanosoma brucei) [µM]	kinact/Ki [3] [M⁻¹ s⁻¹]	inhibition [4] [%]	Compound	CC50 [1] [µM]	selectivity ratio [2]
5.97	–	100	O=C(N[C@H](/C=C/S(=O)(=O)c1ccccc1)CCc1ccccc1)c1cccc2cccnc12	> 80	> 13.4
6.3	245	100	O=C(N[C@H](/C=C/S(=O)(=O)c1ccccc1)CCc1ccccc1)c1cccc2c1NCCC2	> 160	> 25
3.02	–	–	C[C@H]1CC(C)(C)Nc2c(C(=O)N[C@H](/C=C/S(=O)(=O)c3ccccc3)CCc3ccccc3)cccc21	> 300	> 99.3
1.88	–	–	CC1=CC(C)(C)Nc2c(C(=O)N[C@H](/C=C/S(=O)(=O)c3ccccc3)CCc3ccccc3)cccc21	> 300	> 160
6.2	108	96.2	CCCC[C@@H](/C=C/S(=O)(=O)c1ccccc1)NC(=O)c1cccc2cccnc12	36.5	6.38
0.69	–	100	O=C(N[C@H](/C=C/S(=O)(=O)c1ccccc1)CCc1ccccc1)c1ccc([N+](=O)[O-])s1	12.4	18
5.9	293	99.1	O=C(N[C@H](/C=C/S(=O)(=O)c1ccccc1)CCc1ccccc1)c1cccc2nccnc12	39.6	6.71
0.11	–	78.1	O=C(N[C@H](/C=C/S(=O)(=O)c1ccccc1)CCc1ccccc1)c1ccc([N+](=O)[O-])o1	5.17	47
0.004	–	–	Cc1ccc(C(=O)Nc2ccc(S(=O)(=O)O)c3cc(S(=O)(=O)O)cc(S(=O)(=O)O)c23)cc1NC(=O)c1cccc(NC(=O)Nc2cccc(C(=O)Nc3cc(C(=O)Nc4ccc(S(=O)(=O)O)c5cc(S(=O)(=O)O)cc(S(=O)(=O)O)c45)ccc3C)c2)c1 [SURAMIN]	–	–
